Series [1] is described as follows: Distribution coefficient (n-octanol-water) shake flask method GB/T 21853-2008. It is filed as physicochemical. Particulars: in water.
The nature of another series: Solubility in water. It is filed as physicochemical.
The conditions of series [2]: cited from earlier work.
For series [3] the following is noted: dog, in vivo; cited from earlier work.

With `CC[C@@]1(OC(=O)OCC(C)C)C(=O)OCc2c1cc1n(c2=O)Cc2cc3c([N+](=O)[O-])cccc3nc2-1` [the compound of formula I], the “Lg Po/w” value in series [1] was determined as 7.31. Further, in the series “Solubility in water”, the solubility in water result is listed as “almost insoluble in water”. Also, the “stability in human plasma” value in series [2] was “good stability”.
With `CC[C@@]1(O)C(=O)OCc2c1cc1n(c2=O)Cc2cc3c([N+](=O)[O-])cccc3nc2-1` [Example 9-NC, 9-nitro-camptothecin], the oral bioavailability result in series [3] was “less than 6%”.

The record behind these values is patent publication US20150057305A1, “PHARMACEUTICAL COMPOSITION” (SHANGHAI HOTMED SCIENCES CO., LTD., priority 2012, published 2015).
